Data on seven compounds can be found in ChEMBL document CHEMBL6134805, “Dual-acting β-Aminothiochromones: Design, synthesis, and evaluation as antimicrobial and anti-angiogenic agents” (2025).

Each structure is given as a SMILES string. Converted amounts (≈) assume the structure as drawn. The source made the active and inactive calls. The rule behind the calls is not given here.

Test [1] has as its system Bacillus subtilis. Description: Bactericidal activity against Bacillus subtilis MTCC 13343 by serial dilution method. The class given is functional.
The test system of test [2] is Staphylococcus aureus. The test is described as follows: Bactericidal activity against Staphylococcus aureus ATCC 6538 by serial dilution method. The class given is functional.
Test [3] has as its system Staphylococcus aureus. Description: Antimicrobial activity against Staphylococcus aureus ATCC 6538 assessed as reduction in bacterial growth by serial dilution method. The format is functional.
In test [4] the test system is Bacillus subtilis. Description: Antimicrobial activity against Bacillus subtilis MTCC 13343 assessed as reduction in bacterial growth by serial dilution method. The class given is functional.
Test [5] concerns Candida albicans. Description: Antimicrobial activity against Candida albicans ATCC 24433 assessed as reduction in fungal growth by serial dilution method. The format is functional.
The subject of test [6] is HepG2. Description: Antiangiogenic activity against human HepG2 cells assessed as reduction in area of wound coverage at 6.25 ug/mL incubated for 24 to 72 hrs by scratch wound healing assay. The class given is functional, cell-based. Conditions: dose 6.25 µg/ml, time 24-72 hrs.
The subject of test [7] is HepG2. Description: Cytotoxicity against human HepG2 cells assessed as reduction in cell viability up to 100 ug/mL by MTT assay relative to control. The following applies: dose <= 100 µg/ml; up to 100 µg/mL. The format is functional.
The test system of test [8] is HepG2. Description: Cytotoxicity against human HepG2 cells assessed as reduction in cell viability at 25 to 100 ug/mL by MTT assay. The class given is functional, cell-based. The following applies: dose 25-100 µg/ml.
For test [9], the system named is Escherichia coli. Description: Antimicrobial activity against Escherichia coli ATCC 10799 assessed as reduction in bacterial growth by serial dilution method. The class given is functional.
The subject of test [10] is HepG2. Description: Antiangiogenic activity against human HepG2 cells assessed as reduction in area of wound coverage at 12.5 ug/mL incubated for 24 to 72 hrs by scratch wound healing assay. The format is functional, cell-based. The following applies: dose 12.5 µg/ml, time 24-72 hrs.
Test [11] relates to HepG2. Description: Antiangiogenic activity against human HepG2 cells assessed as reduction in area of wound coverage incubated for 24 to 72 hrs by scratch wound healing assay. The class given is functional, cell-based. The following applies: dose 6.25-12.5 µg/ml, time 24-72 hrs.
Test [12] relates to HepG2. The test is described as follows: Antiangiogenic activity against human HepG2 cells assessed as reduction in area of wound coverage at 12.5 ug/mL incubated for 72 hrs by scratch wound healing assay relative to control. The class given is functional. Conditions: dose 12.5 µg/ml. Also noted: scale not given: the % may be the effect or the level left.
The test system of test [13] is HepG2. The test is described as follows: Antiangiogenic activity against human HepG2 cells assessed as reduction in area of wound coverage at 6.25 to 12.5 ug/mL by scratch wound healing assay. The format is functional, cell-based. The following applies: dose 6.25-12.5 µg/ml, time 24-72 hrs.
A further test concerns Nakaseomyces glabratus. Description: Antimicrobial activity against Candida glabrata MTCC 3019 assessed as reduction in fungal growth by serial dilution method. The format is functional.
Test [14] deals with Pseudomonas aeruginosa. The test is described as follows: Antimicrobial activity against Pseudomonas aeruginosa MTCC 11778 assessed as reduction in bacterial growth by serial dilution method. The class given is functional.
Test [15] has as its system Escherichia coli. The test is described as follows: Bactericidal activity against Escherichia coli ATCC 10799 by serial dilution method. The format is functional.
In test [16] the test system is Pseudomonas aeruginosa. The test is described as follows: Bactericidal activity against Pseudomonas aeruginosa MTCC 11778 by serial dilution method. The class given is functional.
Test [17] relates to Candida albicans. The test is described as follows: Fungicidal activity against Candida albicans ATCC 24433 by serial dilution method. The format is functional.
The subject of test [18] is Bacillus subtilis. Description: Selectivity ratio of MBC for bactericidal activity against Bacillus subtilis MTCC 13343 to MIC for antimicrobial activity against Bacillus subtilis MTCC 13343. The class given is functional.
Test [19] relates to Escherichia coli. Description: Selectivity ratio of MBC for bactericidal activity against Escherichia coli ATCC 10799 to MIC for antimicrobial activity against Escherichia coli ATCC 10799. The class given is functional.
Test [20] concerns HepG2. The test is described as follows: Antiangiogenic activity against human HepG2 cells assessed as reduction in area of wound coverage at 12.5 ug/mL incubated for 24 hrs by scratch wound healing assay. The format is functional. Conditions: dose 12.5 µg/ml.
The test system of test [21] is HepG2. Description: Antiangiogenic activity against human HepG2 cells assessed as reduction in area of wound coverage at 12.5 ug/mL incubated for 48 hrs by scratch wound healing assay. The class given is functional. Conditions: dose 12.5 µg/ml.
The subject of test [22] is HepG2. The test is described as follows: Antiangiogenic activity against human HepG2 cells assessed as reduction in area of wound coverage at 12.5 ug/mL incubated for 72 hrs by scratch wound healing assay. The format is functional. The following applies: dose 12.5 µg/ml.
The subject of test [23] is HepG2. The test is described as follows: Cytotoxicity against human HepG2 cells assessed as reduction in cell viability at 100 ug/mL by MTT assay relative to control. The format is functional. The following applies: dose 100 µg/ml.

With `CC1(C)S[C@@H]2[C@H](NC(=O)[C@H](N)c3ccccc3)C(=O)N2[C@H]1C(=O)O` [AMPICILLIN], the results for the MBC against Bacillus subtilis [1] and against Staphylococcus aureus [2] were 32 µg/mL (≈ 91.6 µM) and 64 µg/mL (≈ 183 µM), respectively. The MIC with Staphylococcus aureus [3] worked out at 4 µg/mL (≈ 11.4 µM); with Bacillus subtilis [4], 8 µg/mL (≈ 22.9 µM).

Turning to `O=c1c(C(NCc2cccc(C(F)(F)F)c2)c2ccccc2)csc2ccccc12` (stereo not drawn), the MIC in the test with Candida albicans [5] came out at 32 µg/mL (≈ 75.2 µM); in the test on Escherichia coli [9] it was 32 µg/mL (≈ 75.2 µM); with Nakaseomyces glabratus it was 64 µg/mL (≈ 150 µM); with Pseudomonas aeruginosa [14], 32 µg/mL (≈ 75.2 µM); with Staphylococcus aureus [3] it was 64 µg/mL (≈ 150 µM); with Bacillus subtilis [4], 64 µg/mL (≈ 150 µM). Moreover, the outcome with HepG2 [6], in the test on HepG2 [8] and in the test on HepG2 [10] was Active. Also, the Activity in the test on HepG2 [7] was below 70%; in the test with HepG2 [11] it was “Dose-dependent-effect”; in the test on HepG2 [12], 28.93%; in the test with HepG2 [13], “Time-dependent-effect”.

As for `O=C(O)c1cn(C2CC2)c2cc(N3CCNCC3)c(F)cc2c1=O` [CIPROFLOXACIN], the MBC was 64 µg/mL (≈ 193 µM) in the test with Escherichia coli [15] and 32 µg/mL (≈ 96.6 µM) against Pseudomonas aeruginosa [16]. Further, the MIC with Pseudomonas aeruginosa [14] turned out to be 4 µg/mL (≈ 12.1 µM).

As for `O=c1c(C(NCc2ccc(Cl)cc2)c2ccccc2)csc2ccccc12` (stereo not drawn), the MIC in the test on Candida albicans [5] was determined as 32 µg/mL (≈ 81.6 µM); with Escherichia coli [9] it was 32 µg/mL (≈ 81.6 µM); in the test on Nakaseomyces glabratus, 32 µg/mL (≈ 81.6 µM); in the test with Pseudomonas aeruginosa [14] it was 32 µg/mL (≈ 81.6 µM); with Staphylococcus aureus [3] it was 64 µg/mL (≈ 163 µM); with Bacillus subtilis [4], 64 µg/mL (≈ 163 µM). The outcome in the test on HepG2 [6], in the test with HepG2 [8] and with HepG2 [10] was Active. Further, the Activity with HepG2 [7] was below 70%; in the test with HepG2 [11], “Dose-dependent-effect”; in the test with HepG2 [12], 25.83%; in the test with HepG2 [13] it was “Time-dependent-effect”.

In the case of `OC(Cn1cncn1)(Cn1cncn1)c1ccc(F)cc1F` [FLUCONAZOLE], the values for the MIC in the test on Candida albicans [5] and in the test with Nakaseomyces glabratus were 8 µg/mL (≈ 26.1 µM) and 16 µg/mL (≈ 52.2 µM), respectively. The MFC against Candida albicans [17] was 64 µg/mL (≈ 209 µM).

With `O=c1c(C(NCc2ccc(OC(F)(F)F)cc2)c2ccccc2)csc2ccccc12` (stereo not drawn), the MIC turned out to be 16 µg/mL (≈ 36.2 µM) in the test on Candida albicans [5]; 8 µg/mL (≈ 18.1 µM) with Escherichia coli [9]; 16 µg/mL (≈ 36.2 µM) with Nakaseomyces glabratus; 16 µg/mL (≈ 36.2 µM) with Pseudomonas aeruginosa [14]; 8 µg/mL (≈ 18.1 µM) with Staphylococcus aureus [3]; 16 µg/mL (≈ 36.2 µM) in the test on Bacillus subtilis [4]. Further, the outcome in the test with HepG2 [6], in the test on HepG2 [8] and with HepG2 [10] was Active. The Activity with HepG2 [7] is above 70%; with HepG2 [11] it was “Dose-dependent-effect”; with HepG2 [12] it was 31.19%; in the test on HepG2 [13], “Time-dependent-effect”. The MBC against Bacillus subtilis [1] was determined as 64 µg/mL (≈ 145 µM); in the test with Staphylococcus aureus [2] it was 32 µg/mL (≈ 72.5 µM); with Escherichia coli [15], 32 µg/mL (≈ 72.5 µM); with Pseudomonas aeruginosa [16] it was 64 µg/mL (≈ 145 µM). Further, the results for the Selectivity ratio with Bacillus subtilis [18] and in the test on Escherichia coli [19] were 16 and 4, respectively.

For `O=c1c(C(NCc2ccccc2)c2ccccc2)csc2ccc(Cl)cc12` (stereo not drawn), the MIC in the test with Candida albicans [5] was 16 µg/mL (≈ 40.8 µM); in the test with Escherichia coli [9], 16 µg/mL (≈ 40.8 µM); in the test on Nakaseomyces glabratus, 8 µg/mL (≈ 20.4 µM); in the test on Pseudomonas aeruginosa [14], 8 µg/mL (≈ 20.4 µM); in the test with Staphylococcus aureus [3], 16 µg/mL (≈ 40.8 µM); with Bacillus subtilis [4] it was 4 µg/mL (≈ 10.2 µM). The result in the test with HepG2 [6] and in the test with HepG2 [8] was Active. The Activity result with HepG2 [11] was “Dose-dependent-effect”; in the test with HepG2 [20], 768000 µm²; in the test on HepG2 [12], 18.24%; with HepG2 [13], “Time-dependent-effect”; in the test with HepG2 [21], 683000 µm²; in the test on HepG2 [22], 692000 µm². Further, in the test on HepG2 [23], the Activity turned out to be 80%. In addition, the MBC against Bacillus subtilis [1] and against Pseudomonas aeruginosa [16] was 64 µg/mL (≈ 163 µM) in each case. Moreover, the Selectivity ratio in the test on Bacillus subtilis [18] was 16.
